Consider seven compounds from ChEMBL document CHEMBL3627662, “Ligand-Orientation Based Fragment Selection in STD NMR Screening” (J Med Chem, 2015).

Activity calls are given as the source filed them. The rule behind the calls is not given here.

The target of experiment [1] is T1, Glycogen phosphorylase, muscle form (Oryctolagus cuniculus) (UniProt P00489).
T1 sequence (whole entry): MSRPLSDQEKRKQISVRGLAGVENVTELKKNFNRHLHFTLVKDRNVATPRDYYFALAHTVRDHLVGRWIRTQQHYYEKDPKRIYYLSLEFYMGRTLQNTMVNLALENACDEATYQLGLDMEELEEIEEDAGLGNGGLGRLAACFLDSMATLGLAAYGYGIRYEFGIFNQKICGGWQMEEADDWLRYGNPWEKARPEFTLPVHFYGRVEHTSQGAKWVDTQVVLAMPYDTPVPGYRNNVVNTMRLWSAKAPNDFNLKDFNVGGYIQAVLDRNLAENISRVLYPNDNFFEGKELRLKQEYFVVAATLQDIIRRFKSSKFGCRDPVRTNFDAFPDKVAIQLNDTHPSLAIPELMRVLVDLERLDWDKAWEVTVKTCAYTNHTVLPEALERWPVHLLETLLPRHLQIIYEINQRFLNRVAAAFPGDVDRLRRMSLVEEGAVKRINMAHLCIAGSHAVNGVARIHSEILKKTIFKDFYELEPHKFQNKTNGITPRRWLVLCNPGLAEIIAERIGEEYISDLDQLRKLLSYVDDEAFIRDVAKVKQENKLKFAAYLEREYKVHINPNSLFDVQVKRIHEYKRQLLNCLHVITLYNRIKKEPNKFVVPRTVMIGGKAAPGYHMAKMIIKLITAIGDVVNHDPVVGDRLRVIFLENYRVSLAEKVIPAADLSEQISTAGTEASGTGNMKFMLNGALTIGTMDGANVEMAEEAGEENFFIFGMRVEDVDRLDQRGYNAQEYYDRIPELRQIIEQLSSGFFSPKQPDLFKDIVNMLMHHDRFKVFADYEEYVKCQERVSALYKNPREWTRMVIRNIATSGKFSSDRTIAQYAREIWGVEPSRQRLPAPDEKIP
The experiment in a line: Binding affinity to rabbit muscle glycogen phosphorylase by STD NMR spectrometric analysis.

Experiment [2] deals with T1, Glycogen phosphorylase, muscle form (Oryctolagus cuniculus). Nature of the experiment: Binding affinity to rabbit muscle glycogen phosphorylase measured for 0.5 to 4 secs by STD NMR spectrometric analysis.
Experiment [3] has as its target Mitogen-activated protein kinase 3 (Homo sapiens) (UniProt P27361). The experiment in a line: Binding affinity to ERK1 (unknown origin) expressed in Escherichia coli by STD NMR spectrometric analysis.
The target in experiment [4] is T2, Peroxiredoxin-5, mitochondrial (Homo sapiens) (UniProt P30044).
T2 sequence (whole entry): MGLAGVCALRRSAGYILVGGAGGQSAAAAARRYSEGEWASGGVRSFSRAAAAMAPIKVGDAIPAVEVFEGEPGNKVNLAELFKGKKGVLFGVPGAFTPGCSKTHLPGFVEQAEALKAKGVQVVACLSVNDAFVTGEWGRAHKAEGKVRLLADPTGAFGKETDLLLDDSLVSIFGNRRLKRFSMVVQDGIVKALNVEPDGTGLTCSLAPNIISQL
Nature of the experiment: Binding affinity to human PRDX5 expressed in Escherichia coli by STD NMR spectrometric analysis.

The target in experiment [5] is T2, Peroxiredoxin-5, mitochondrial (Homo sapiens). The experiment in a line: Binding affinity to human PRDX5 expressed in Escherichia coli at ligand/protein ratio 120 measured over 0.5 to 4 secs by STD NMR spectrometric analysis.
For experiment [6] the target is unchanged. The experiment in a line: Binding affinity to human PRDX5 expressed in Escherichia coli at ligand/protein ratio 50 and 240 measured over 2 secs by STD NMR spectrometric analysis.

Chain of Mitogen-activated protein kinase 3 (Homo sapiens) (P27361 whole entry): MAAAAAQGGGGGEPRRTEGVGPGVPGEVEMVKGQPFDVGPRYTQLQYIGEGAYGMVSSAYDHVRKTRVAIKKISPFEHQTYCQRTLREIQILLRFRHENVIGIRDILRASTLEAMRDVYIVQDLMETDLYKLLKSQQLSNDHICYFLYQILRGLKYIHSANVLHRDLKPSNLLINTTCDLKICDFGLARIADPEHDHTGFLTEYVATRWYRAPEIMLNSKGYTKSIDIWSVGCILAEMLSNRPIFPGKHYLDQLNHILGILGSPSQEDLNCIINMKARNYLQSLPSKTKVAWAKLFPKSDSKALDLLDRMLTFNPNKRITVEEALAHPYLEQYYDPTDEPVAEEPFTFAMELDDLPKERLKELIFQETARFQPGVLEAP

Regarding `Oc1ccccc1-c1ccccc1`, in experiment [1], the result was Active. As for `c1ccc2[nH]ccc2c1`, the result in experiment [2] was Active.

As for `c1cnc2[nH]ccc2c1`, the outcome in experiment [1] and in experiment [3] was Active. Regarding `Oc1ccccc1Cc1ccccc1O`, the outcome in experiment [4] was Active. As for `Cc1ccc(O)c(O)c1`, the result in experiment [5] and in experiment [6] was Active.

Take `Nc1nc2ncnc-2c[nH]1`: the outcome in experiment [1] was Active. On the same count and under the same terms, for `O=C(O)c1cnc2ccccc2c1` the value was “Active”.
